Laboratory results reported in patent US20250089717A1, “FUNGICIDAL HALOMETHYL KETONES, HYDRATES AND ENOL ETHERS AND THEIR MIXTURES” (FMC CORPORATION, priority 2023, published 2025).

Each compound was assayed on Phakopsora pachyrhizi (assay: Test A: preventive spray on soybean seedlings, Asian soybean rust, visual disease rating). Settings: rate 10 ppm.
Assay type: in vivo
Excerpt: General protocol for preparing test suspensions for Test A: the test compounds were first dissolved in acetone in an amount equal to 3% of the final volume and then suspended at the desired concentration (in ppm) in acetone and purified water (50/50 mix by volume) containing 250 ppm of the surfactant PEG400 (polyhydric alcohol esters). The resulting test suspensions were then used in Test A.
The test solution was sprayed to the point of run-off on soybean seedlings. The following day the seedlings were inoculated with a spore suspension of Phakopsora pachyrhizi (the causal agent of Asian soybean rust) and incubated in a saturated atmosphere at 22° C. for 24 h and then moved to a growth chamber at 22° C. for 8 days, after which time visual disease ratings were made.
A rating of 100 indicates 100% disease control and a rating of 0 indicates no disease control (relative to the controls).

In order of falling “Test A rating (100 = 100% disease control, 0 = no disease control relative to the controls)” value:
1. CCO/C(=C\Oc1ccc(Cn2cc(COC(=O)C(C)(C)C)cn2)c(F)c1)C(F)(F)F [Compound 73]  100%
2. CCO/C(=C\Oc1ccc(Cn2cc(COCC3CCCC3)cn2)cc1)C(F)(F)F [compound 63]  100%
3. CCO/C(=C\Oc1ccc(Cn2cc(COC(=O)C(F)(F)Cl)cn2)cc1)C(F)(F)F [compound 19]  100%
4. CCO/C(=C\Oc1ccc(Cn2cc(C(=O)NOCC#N)cn2)c(F)c1F)C(F)(F)F [Compound 78]  100%
5. CCO/C(=C\Oc1ccc(Cn2cc(COC(=O)C3CC3)cn2)c(F)c1)C(F)(F)F [Compound 76]  100%
6. CCO/C(=C\Oc1ccc(Cn2cc(COC(=O)COC)cn2)c(F)c1F)C(F)(F)F [Compound 74]  100%
7. CCO/C(=C\Oc1ccc(Cn2cc(COC(=O)CC#N)cn2)cc1)C(F)(F)F [compound 24]  100%
8. CCO/C(=C\Oc1ccc(Cn2cc(C(=O)NOCC3CC3)cn2)c(F)c1F)C(F)(F)F [Compound 80]  100%
9. CCO/C(=C\Oc1ccc(Cn2cc(C(=O)NOCC=CCl)cn2)cc1)C(F)(F)F [compound 32]  100%
10. CCO/C(=C\Oc1ccc(Cn2cc(C(=O)NOCC3CC3)cn2)c(F)c1)C(F)(F)F [Compound 82]  100%
11. CCO/C(=C\Oc1ccc(Cn2cc(COC(=O)C3CC3)cn2)c(F)c1F)C(F)(F)F [Compound 71]  100%
12. CCO/C(=C\Oc1ccc(Cn2cc(COCC3(C)CC3)cn2)cc1)C(F)(F)F [compound 57]  100%
13. C#CCONC(=O)c1cccc(Cc2ccc(O/C=C(\OCC)C(F)(F)F)cc2)n1 [Compound 125, 2-[[4-1[[(1Z)-2-ethoxy-3,3,3-trifluoro-1-propen-1-yl]oxy]phenyl]methyl]-N-(2-propyn-1-yloxy)-6-pyridinecarboxamide]  100%
14. CCO/C(=C\Oc1ccc(Cn2cc(COC(=O)CC)cn2)c(F)c1)C(F)(F)F [Compound 77]  100%
15. CCO/C(=C\Oc1ccc(Cn2cc(COC(=O)OC)cn2)cc1)C(F)(F)F [Compound 52, 1-[[4-[[(1Z)-2-ethoxy-3,3,3-trifluoro-1-propen-1-yl]oxy]phenyl]methyl]-1H-pyrazol-4-yl]methyl methyl carbonate]  100%
16. CCO/C(=C\Oc1ccc(Cn2cc(COC(=O)C(=O)OC)cn2)cc1)C(F)(F)F [Compound 48, 1-[[1-[[4-[[(1Z)-2-ethoxy-3,3,3-trifluoro-1-propen-1-yl]oxy]phenyl]methyl]-1H-pyrazol-4-yl]methyl]2-methyl ethanedioate]  100%
17. CCO/C(=C\Oc1ccc(Cn2cc(COC(=O)OC)cn2)c(F)c1F)C(F)(F)F [Compound 69]  100%
18. CCO/C(=C\Oc1ccc(Cn2cc(C(=O)NOCC(F)(F)F)cn2)c(F)c1F)C(F)(F)F [Compound 79]  100%
19. CCO/C(=C\Oc1ccc(Cn2cccc(C(=O)NOCC#N)c2=O)cc1)C(F)(F)F [compound 98]  99%
20. CCO/C(=C\Oc1ccc(Cn2cccc(C(=O)N(C)OCC3CC3)c2=O)cc1)C(F)(F)F [compound 102]  99%
21. C=CCON=C(OCCCC)c1cnn(Cc2ccc(O/C=C(\OCC)C(F)(F)F)cc2)c1 [compound 42]  96%
22. C=CCONC(=O)c1cnn(CCCc2ccc(O/C=C(\OCC)C(F)(F)F)cc2)c1 [compound 60]  96%
23. C=CCOC(=O)Cc1cnn(Cc2ccc(O/C=C(\OCC)C(F)(F)F)cc2)c1 [compound 14]  96%
24. CCO/C(=C\Oc1ccc(Cn2cccc(C(=O)N(C)OCCOC)c2=O)cc1)C(F)(F)F [compound 101]  94%
25. C#CCON(C)C(=O)c1cccn(Cc2ccc(O/C=C(\OCC)C(F)(F)F)cc2)c1=O [compound 99]  92%
26. C=CCON(CCCC)C(=O)c1cnn(Cc2ccc(O/C=C(\OCC)C(F)(F)F)cc2)c1 [compound 43]  87%
27. CCO/C(=C\Oc1ccc(Cn2cc(COC(=O)CC#N)nn2)cc1)C(F)(F)F [Compound 9]  0%

Same assay, conditions: rate 10 ppm, read-out: Test A rating (100 = 100% disease control, 0 = no disease control relative to the controls)

In order of rising pest or weed control at 10 ppm:
1. C=CCONC(=O)c1ccn(Cc2ccc(O/C=C(\OCC)C(F)(F)F)cc2)c1 [compound 115]  96%
2. C=CCONC(=O)c1cc(Cc2ccc(OCC3(C(F)(F)F)OCCO3)cc2)ccn1 [compound 129]  98%
3. C#CCO/N=C(\OC)c1cccc(Cc2ccc(O/C=C(\OCC)C(F)(F)F)cc2)n1 [compound 134]  99%
4. CCO/C(=C\Oc1ccc(Cc2cccc(C(=O)NOCc3ccccc3)n2)cc1)C(F)(F)F [compound 126]  99%
5. C=CCON(C)C(=O)c1cc(Cc2ccc(OCC3(C(F)(F)F)OCCO3)cc2)ccn1 [compound 130]  99%
6. CCOC(=S)c1cnn(Cc2ccc(O/C=C(\OCC)C(F)(F)F)cc2)c1 [Compound 7, O-ethyl 1-[[4-[[(1Z)-2-ethoxy-3,3,3-trifluoro-1-propen-1-yl]oxy]phenyl]methyl]-1H-pyrazole-4-carbothioate]  100%
7. CCO/C(=C\Oc1ccc(Cn2cc(C(=O)NOCc3ccccc3)cn2)cc1)C(F)(F)F [Compound 31, 1-[[4-[[(1Z)-2-ethoxy-3,3,3-trifluoro-1-propen-1-yl]oxy]phenyl]methyl]-N-(phenylmethoxy)-1H-pyrazole-4-carboxamide]  100%
8. C=CCO/N=C(\OCC)c1cc(Cc2ccc(O/C=C(\OCC)C(F)(F)F)cc2)ccn1 [compound 118]  100%
9. CCO/C(=C\Oc1ccc(Cn2cc(COC(=O)C(C)C)cn2)cc1)C(F)(F)F [Compound 46, [1-[[4-[[(1Z)-2-ethoxy-3,3,3-trifluoro-1-propen-1-yl]oxy]phenyl]methyl]-1H-pyrazol-4-yl]methyl 2-methylpropanoate]  100%
10. CCO/C(=C\Oc1ccc(Cn2cc(C(=O)NOCC(F)(F)F)cn2)cc1)C(F)(F)F [Compound 45, 1-[[4-[[(1Z)-2-ethoxy-3,3,3-trifluoro-1-propen-1-yl]oxy]phenyl]methyl]-N-(2,2,2-trifluoroethoxy)-1H-pyrazole-4-carboxamide]  100%
11. C#CCON(C)C(=O)c1cccc(Cc2ccc(O/C=C(\OCC)C(F)(F)F)cc2)n1 [Compound 121, 2-[[4-[[(1Z)-2-ethoxy-3,3,3-trifluoro-1-propen-1-yl]oxy]phenyl]methyl]-N-methyl-N-(2-propyn-1-yloxy)-6-pyridinecarboxamide]  100%
12. CCO/C(=C\Oc1ccc(Cn2cc(COC(=O)CC(C)C)cn2)cc1)C(F)(F)F [Compound 27, [1-[[4-[[(1Z)-2-ethoxy-3,3,3-trifluoro-1-propen-1-yl]oxy]phenyl]methyl]-1H-pyrazol-4-yl]methyl 3-methylbutanoate]  100%
13. CCO/C(=C\Oc1ccc(Cn2cc(COC(=O)CC(F)(F)F)cn2)cc1)C(F)(F)F [Compound 35, [1-[[4-[[(1Z)-2-ethoxy-3,3,3-trifluoro-1-propen-1-yl]oxy]phenyl]methyl]-1H-pyrazol-4-yl]methyl 3,3,3-trifluoropropanoate]  100%
14. C=CCON(CC)C(=O)c1cc(Cc2ccc(O/C=C(\OCC)C(F)(F)F)cc2)ccn1 [Compound 119, 4-[[4-[[(1Z)-2-ethoxy-3,3,3-trifluoro-1-propen-1-yl]oxy]phenyl]methyl]-N-ethyl-N-(2-propen-1-yloxy)-2-pyridinecarboxamide]  100%
15. CCO/C(=C\Oc1ccc(Cc2nc(C(=O)NOCCOC)cs2)cc1)C(F)(F)F [compound 112]  100%
16. C=CCONC(=O)c1csc(Cc2ccc(O/C=C(\OCC)C(F)(F)F)cc2)n1 [compound 117]  100%

Same assay, conditions: rate 50 ppm

In order of rising “Test A rating (100 = 100% disease control, 0 = no disease control relative to the controls)” value:
1. CC(=O)OCc1cnn(Cc2ccc(OCC3(C(F)(F)F)OCCO3)cc2)c1 [Compound 90]  100%
2. CCO/C(=C\Oc1ccc(Cn2cc(COC(=O)NC)cn2)cc1)C(F)(F)F [compound 15]  100%
3. CCOC(=O)C(=O)OCc1cnn(Cc2ccc(OCC3(C(F)(F)F)OCCO3)cc2)c1 [Compound 91]  100%

Same assay, conditions: rate 50 ppm, read-out: Test A rating (100 = 100% disease control, 0 = no disease control relative to the controls)

For CCO/C(=C\Oc1ccc(Cn2cc(CC(=O)N(C)OC)cn2)cc1)C(F)(F)F [Compound 5, 1-[[4-[[(1Z)-2-ethoxy-3,3,3-trifluoro-1-propen-1-yl]oxy]phenyl]methyl]-N-methoxy-N-methyl-1H-pyrazole-4-acetamide], the pest or weed control at 50 ppm was 94%.

Same assay, conditions: rate 250 ppm, read-out: Test A rating (100 = 100% disease control, 0 = no disease control relative to the controls)

In the case of C=CCON(CC)C(=O)c1cccc(Cc2ccc(O/C=C(\OCC)C(F)(F)F)cc2)c1 [compound 128], the pest or weed control at 250 ppm is reported as 100%.
